Earlier results on two molecules are cited in US20240148688A1, “METHODS FOR TREATING AND AMELIORATING CANCER” (The Regents of the University of California, priority 2021, published 2024).

For data set [1] the following is noted: patients with MDS, AML and CMML; cited from earlier work.
The conditions of data set [2]: cited from earlier work.

In the case of H3B-8800, the “CR or PR (clinical response)” value in data set [1] is on record as “no CR or PR”.

Regarding `CC[C@H](O)[C@@H](C)[C@H]1O[C@@H]1C[C@@](C)(O)/C=C/C=C(\C)[C@H]1OC(=O)C[C@H](O)CC[C@@](C)(O)[C@@H](OC(=O)N2CCN(C3CCCCCC3)CC2)/C=C/[C@@H]1C` [E7107], the reversible optic neuritis entry in data set [2] (patients with solid tumors) is reported as “two of 26 patients”. Also, in data set [2] (patients), the “efficacy in clinical trial” value is listed as “limited efficacy”.
